Data as given in US5726325A, “Tricyclic compounds” (Kyowa Hakko Kogyo Co., Ltd., priority 1995, dated 1998).

Experiments:
detrusor muscle [1] = test: Test Example 2: relaxation of guinea pig bladder strips, rhythmical contraction induced by 15 mM KCl; format: cell-based, guinea pig (male albino Hartley); settings: Cavia porcellus, concentration decreasing detrusor contraction by 50%
Excerpt: (§1) The activity of Compound (I) as a smooth muscle relaxant which is useful as a therapeutic agent for urinary incontinence can be observed, for example, using the following tests. In the following Test Examples 1 and 2, "IC50 " means the concentration of a test compound which induces the decrease in the contraction of detrusor muscle by 50%.
(§2) Male albino Hartley guinea pigs (350-550 g) were used as test animals. Each animal was exsanguinated to death under pentobarbital sodium anesthesia. The lower abdominal cavity was opened and its bladder was positioned. The connective tissue and the fat tissue around the bladder were removed, and the bladder was cleaned. After two pelvic nerves on the surface of the abdominal side of the bladder were dissected, the bladder was taken out on the entrance of ureter. The bladder was washed with a Krebs-Henseleit buffer [composition (mM): NaCl 118, KCl 4.7, MgSO4 1.2, KH2 PO4 1.2, CaCl2 2.5, NaHCO3 25, and D-glucose 11.1], and then put on a gauze patch soaked in the buffer in a Petri dish. The dome and the trigone of the bladder were dissected and discarded. The back of the bladder was cut vertically in the middle with scissors, and the bladder was put flat on the gauze patch. The dome tip and the side of the trigone of the bladder were dissected and discarded, and the mucosa of the bladder was removed. The back of the bladder was cut vertically to get 6 strips which are ca. 2.0 mm wide and ca. 10 mm long.
(§3) One end of each strip was fixed on a plastic supporter rod, and the other end was fixed on a clip connected to a suture thread. The supporter was fixed in 20 ml of an organ bath and the suture thread connected to the clip was fixed on a force-displacement transducer (NIHON KODEN TB-611T). The tissue was suspended in a Krebs-Henseleit buffer, and the bath solution was warmed to 37° C. and bubbled with a gas mixture of 5% CO2 and 95% O2. The pH of the solution was adjusted to about 7.4. The transducer was connected to a polygraph (NIHON KODEN AP-621G), and the change of tension was recorded on a recorder (YOKOGAWA type 3066). The polygraph was graduated by 0.5 g/cm.
The effect of a smooth muscle relaxant varies with the concentration of KCl based on the difference of an action mechanism. In the following Test Example, KCl was used at a concentration different from that in Test Example 1.
A sample of the excised bladder was prepared in the same manner as in Test Example 1, and the tension of the preparation was measured. After the tension of the tissue was adjusted to be a steady state at 1 g, 15 mM KCl was applied. After the rhythmical contraction was confirmed to appear by KCl, the tissue was washed. Then, 15 mM KCl was applied again. After the rhythmical contraction took place constantly and the tissue reached the steady state, a test compound was applied by the cumulative method (half-logarithmic incremence). The contact time at each concentration was 30 minutes. The activity of the compound was expressed as the maximum relaxation rate (%) of the tension induced by the agonist.

detrusor muscle [2] = test: Test Example 1: relaxation of guinea pig bladder strips contracted with 50 mM KCl; format: cell-based, guinea pig (male albino Hartley); settings: Cavia porcellus; contraction induced by 50 mM KCl; concentration decreasing detrusor contraction by 50%
Excerpt: as §1, §2, §3
After the tissue was incubated in the buffer for 15 minutes without preloading, tension was added thereto for about one hour. The preloading tension added was 1.5 g and it was relaxed to about 1 g. The tissue was washed at intervals of 15 minutes and the tension was adjusted to 1.5 g just before washing. The tension of the tissue was adjusted to be a steady state at 1 g. After this equilibrium time, 50 mM KCl (the whole content in the bath) was added, and the tissue was washed 10 minutes later. KCl was added to the tissue at intervals of 30 minutes, followed by washing 10 minutes later, and KCl was applied repeatedly until the developed tension induced by KCl becomes constant. When the tissue was confirmed to contract constantly by the application of KCl and relax to the steady state after washing, 50 mM KCl was applied again. After the tissue reached the steady state and the base line was obtained, a test compound was applied by the cumulative method (half-logarithmic incremence). The contact time at each concentration was 30 minutes. The activity of the compound was expressed as the maximum relaxation rate (%) of the tension induced by the agonist.

bladder = test: Test Example 4: micturition contraction interval in rats under partial restraint, oral; format: in vivo, rat (male SD strain); settings: Rattus norvegicus, 1 mg/kg oral, pre-administration = 100
Excerpt: As a control compound, cromakalim was used.

Structure (SMILES) | IC50 (detrusor muscle [1]) [µM] | IC50 (detrusor muscle [2]) [µM] | also measured
C[C@@](O)(C(=O)Nc1ccc2c(c1)OCc1occc1C2=O)C(F)(F)F [Compound 38, (R)-7-(3,3,3-Trifluoro-2-hydroxy-2-methylpropanoylamino)-4,10-dihydrofuro[2,3-c][1]benzoxepin-4-one] | 0.9 | 13.4 | –
CC(O)(C(=O)Nc1ccc2c(c1)C(=O)c1ccccc1CO2)C(F)(F)F (centres unmarked) [Compound 3, 2-(3,3,3-Trifluoro-2-hydroxy-2-methylpropanoylamino)-6,11-dihydrodibenz[b,e]oxepin-11-one] | 1.8 | 2.2 | –
CC(O)(C(=O)Nc1ccc2c(c1)[S+]([O-])Cc1sccc1C2=O)C(F)(F)F (centres unmarked) [Compound 51, 9-Oxo-7-(3,3,3-trifluoro-2-hydroxy-2-methylpropanoylamino)-4,10-dihydrothieno[2,3-c][1]benzothiepin-4-one] | 5.7 | – | –
CC(O)(C(=O)Nc1cccc2ccc3ccsc3c(=O)c12)C(F)(F)F (centres unmarked) [Compound 63, 9-(3,3,3-Trifluoro-2-hydroxy-2-methylpropanoylamino)-10H-benzo[5,6]cyclohepta[1,2-b]thiophen-10-one] | > 10 | 3.3 | –
C[C@](O)(C(=O)Nc1ccc2c(c1)C(=O)c1sccc1CO2)C(F)(F)F [Compound 39, (S)-8-(3,3,3-Trifluoro-2-hydroxy-2-methylpropanoylamino)-4,10-dihydrothieno[3,2-c][1]benzoxepin-10-one] | 2.6 | > 10 | –
CC(O)(C(=O)Nc1cccc2ccc3ccoc3c(=O)c12)C(F)(F)F (centres unmarked) [Compound 67, 9-(3,3,3-Trifluoro-2-hydroxy-2-methylpropanoylamino)-10H-benzo[5,6]cyclohepta[1,2-b]furan-10-one] | 3.8 | 6.9 | –
COc1ccc(NC(=O)C(C)(O)C(F)(F)F)c2c1OCc1ccccc1C2=O (centres unmarked) [Compound 23] | 7.8 | > 10 | –
CC(O)(C(=O)Nc1ccc2c(=O)c3sccc3ccc2c1)C(F)(F)F (centres unmarked) [Compound 65, 7-(3,3,3-Trifluoro-2-hydroxy-2-methylpropanoylamino)-10H-benzo[5,6]cyclohepta[1,2-b]thiophen-10-one] | 2.3 | 4.6 | –
Cc1cc2c(cc1NC(=O)C(C)(O)C(F)(F)F)OCc1ccccc1C2=O (centres unmarked) [Compound 25, 2-Methyl-3-(3,3,3-trifluoro-2-hydroxy-2-methylpropanoylamino)-6,11-dihydrodibenz[b,e]oxepin-11-one] | > 10 | 2.2 | –
CC(O)(C(=O)Nc1cccc2ccc3sccc3c(=O)c12)C(F)(F)F (centres unmarked) [Compound 66, 5-(3,3,3-Trifluoro-2-hydroxy-2-methylpropanoylamino)-4H-benzo[4,5]cyclohepta[1,2-b]thiophen-4-one] | 2.1 | 1.4 | –
CC(O)(C(=O)Nc1cc2c(cc1Cl)-c1ccccc1C2=O)C(F)(F)F (centres unmarked) [Compound 11, 3-Chloro-2-(3,3,3-trifluoro-2-hydroxy-2-methyl-propanoylamino)fluoren-9-one] | 2.2 | 2 | –
CC(O)(C(=O)Nc1ccc2c(c1)SCc1sccc1C2=O)C(F)(F)F (centres unmarked) [Compound 47, 7-(3,3,3-Trifluoro-2-hydroxy-2-methylpropanoylamino)-4,10-dihydrothieno[2,3-c][1]benzothiepin-4-one] | 6.1 | – | –
C[C@@](O)(C(=O)Nc1cccc2c1C(=O)c1sccc1CO2)C(F)(F)F [Compound 34, (R)-9-(3,3,3-Trifluoro-2-hydroxy-2-methylpropanoylamino)-4,10-dihydrothieno[3,2-c][1]benzoxepin-10-one] | 2.2 | 1.6 | –
CC(O)(C(=O)Nc1cccc2c1C(=O)c1ccsc1C[S+]2[O-])C(F)(F)F (centres unmarked) [Compound 50, 9-Oxo-5-(3,3,3-trifluoro-2-hydroxy-2-methylpropanoylamino)-4,10-dihydrothieno[2,3-c][1]benzothiepin-4-one] | 6.1 | – | –
CC(O)(C(=O)Nc1ccc2c(c1)SCc1occc1C2=O)C(F)(F)F (centres unmarked) [Compound 43, 7-(3,3,3-Trifluoro-2-hydroxy-2-methylpropanoylamino)-4,10-dihydrofuro[2,3-c][1]benzothiepin-4-one] | 2.1 | 3.5 | –
CC(O)(C(=O)Nc1ccc2ccc3ccccc3c(=O)c2c1)C(F)(F)F (centres unmarked) [Compound 61, 3-(3,3,3-Trifluoro-2-hydroxy-2-methylpropanoylamino)-5H-dibenzo[a,d]cyclohepten-5-one] | 2.3 | 3.2 | –
CC(O)(C(=O)Nc1ccc2c(c1)SCc1ccsc1C2=O)C(F)(F)F (centres unmarked) [Compound 45, 7-(3,3,3-Trifluoro-2-hydroxy-2-methylpropanoylamino)-4,10-dihydrothieno[3,2-c][1]benzothiepin-10-one] | 2.5 | > 10 | –
CC(O)(C(=O)Nc1cccc2c1-c1ccccc1C2=O)C(F)(F)F (centres unmarked) [Compound 14, 4-(3,3,3-Trifluoro-2-hydroxy-2-methylpropanoylamino)fluoren-9-one] | 2.3 | 5.7 | –
CC(O)(C(=O)Nc1cccc2c1C(=O)c1ccccc1CS2)C(F)(F)F (centres unmarked) [Compound 40, 1-(3,3,3-Trifluoro-2-hydroxy-2-methylpropanoylamino)-6,11-dihydrodibenzo[b,e]thiepin-11-one] | 3.5 | 1.5 | –
C[C@@](O)(C(=O)Nc1cccc2c1C(=O)c1ccoc1CO2)C(F)(F)F [Compound 36, (R)-5-(3,3,3-Trifluoro-2-hydroxy-2-methylpropanoylamino)-4,10-dihydrofuro[2,3-c][1]benzoxepin-4-one] | 1.3 | 8.3 | –
CC(O)(C(=O)Nc1cccc2ccc3ccccc3c(=O)c12)C(F)(F)F (centres unmarked) [Compound 60, 4-(3,3,3-Trifluoro-2-hydroxy-2-methylpropanoylamino)-5H-dibenzo[a,d]cyclohepten-5-one] | 4.1 | > 10 | –
CC(O)(C(=O)Nc1cccc2c1C(=O)c1ccoc1CS2)C(F)(F)F (centres unmarked) [Compound 42, 5(3,3,3-Trifluoro-2-hydroxy-2-methylpropanoylamino)-4,10-dihydrofuro[2,3-c][1]benzothiepin-4-one] | 1.5 | 4.7 | –
Cc1ccc(NC(=O)C(C)(O)C(F)(F)F)c2c1OCc1ccsc1C2=O (centres unmarked) [Compound 26, 6-Methyl-9-(3,3,3-trifluoro-2-hydroxy-2-methylpropanoylamino)-4,10-dihydrothieno[3,2-c][1]-benzoxepin-10-one] | > 10 | 7.1 | –
CC(O)(C(=O)Nc1ccc2c(=O)c3ccccc3ccc2c1)C(F)(F)F (centres unmarked) [Compound 62, 2-(3,3,3-Trifluoro-2-hydroxy-2-methylpropanoylamino)-5H-dibenzo[a,d]cyclohepten-5-one] | > 10 | 9.3 | –
CC1(C)Oc2ccc(C#N)cc2C(N2CCCC2=O)C1O (centres unmarked) [Cromakalim, cromakalim, reference compound] | – | – | response vs control in vivo at 1 mg/kg (bladder; 1 hr): 128%; response vs control in vivo at 1 mg/kg (bladder; 2 hr): 133%; response vs control in vivo at 1 mg/kg (bladder; 3 hr): 142%; response vs control in vivo at 1 mg/kg (bladder; 4 hr): 133%; response vs control in vivo at 1 mg/kg (bladder; 5 hr): 133%
